Data on nine molecules can be found in patent publication US9409905B2, “Antibacterial compounds and methods for use” (PTC THERAPEUTICS, INC., priority 2011, dated 2016).

Assay [1] deals with Escherichia coli (E. coli) BAS849. Nature of the assay: Antibacterial activity, microbroth dilution MIC (Table 1). The assay is classed as cell-based. Conditions: microbroth dilution, super sensitive Gram-negative E. coli BAS849, read-out: MIC, BAS849. An outline of the steps:
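Values are MICs (μg/mL): the smallest drug amount at which macroscopically visible bacterial growth is absent under assay conditions, from a microdilution method in broth.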

In assay [2] the test system is Staphylococcus aureus (S. aureus) 29213. The assay is described as above. The assay is classed as cell-based. Conditions: microbroth dilution, Gram-positive S. aureus 29213, read-out: MIC, 29213. An outline of the steps:
(§1)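 Broth microdilution against S. aureus 29213, E. coli 25922 and hypersensitive E. coli BAS849. MIC in μg/mL is the lowest drug concentration preventing macroscopically visible growth under test conditions.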

The test system of assay [3] is A. baumannii MXX2240. Nature of the assay: Antibacterial activity, MIC, resistant strain (Table 4). Conditions: Acinetobacter baumannii, MXX2240; resistant A. baumannii MMX2240, multi-drug resistant clinical isolate; read-out: MIC, MMX2240. Format: cell-based. An outline of the steps: (§2)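 Values are minimum inhibitory concentrations in μg/mL from broth microdilution, meaning no macroscopically visible growth at that concentration. Resistant MXX isolates are multi-drug resistant clinical strains.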

In assay [4] the test system is K. pneumoniae MXX1232. Described as above. Format: cell-based. Particulars: Klebsiella pneumoniae, MXX1232; resistant K. pneumoniae MMX1232, multi-drug resistant clinical isolate; read-out: MIC, MMX1232. The method, boiled down:
as §2

Assay [5] has as its system E. coli LZ3111. The assay can be described thus: Antibacterial activity, MIC, quinolone resistant strain (Table 2). The assay is classed as cell-based. Conditions: Escherichia coli, LZ3111, read-out: MIC LZ3111. The method, boiled down:
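Growth inhibition assessed by serial drug dilution in broth; endpoint was absence of macroscopically visible growth, reported as MIC, μg/mL.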

Assay [6] relates to Neisseria meningitidis (N. meningitidis) 13090. The assay can be described thus: Antibacterial activity, MIC (Table 8). Format: cell-based. An outline of the steps:
(§3)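 Broth microdilution; MIC (μg/mL) = lowest concentration with no macroscopically visible growth.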

Assay [7] deals with E. coli 25922. The assay can be described thus: Antibacterial activity, microbroth dilution MIC (Table 1). The assay is classed as cell-based, Escherichia coli. Particulars: Escherichia coli; microbroth dilution; control Gram-negative E. coli 25922 strain; read-out: MIC, 25922. An outline of the steps: as §1
In general terms: Dilution methods test growth across graded concentrations, often in twofold steps.

Assay [8] deals with Haemophilus influenzae (H. influenzae) 49247. Nature of the assay: Antibacterial activity, MIC (Table 6). Format: cell-based. An outline of the steps:
as §3

Assay [9] has as its system Pseudomonas aeruginosa (P. aeruginosa) 27853. The assay can be described thus: Antibacterial activity, MIC (Table 5). The assay is classed as cell-based. Conditions: P. aeruginosa 27853, read-out: MIC, 27853. An outline of the steps: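 Using a microbroth dilution format, the minimum inhibitory concentration was recorded as the lowest tested concentration that stopped visible bacterial growth, expressed in μg/mL.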

For assay [10], the system named is Acinetobacter baumannii (A. baumannii) BAA747. Nature of the assay: Antibacterial activity, MIC (Table 4). Format: cell-based. Particulars: A. baumannii BAA747, read-out: MIC, BAA747. An outline of the steps: as §2
Assay [11] concerns Klebsiella pneumoniae (K. pneumoniae) 35657. Nature of the assay: Antibacterial activity, MIC (Table 4). The assay is classed as cell-based. Conditions: K. pneumoniae 35657, read-out: MIC, 35657. An outline of the steps: as §2
Assay [12] concerns Moraxella catarrhalis (M. catarrhalis) 25238. Nature of the assay: Antibacterial activity, MIC (Table 7). The assay is classed as cell-based. An outline of the steps: as §3
Assay [13] relates to E. coli ELZ4251. The assay can be described thus: Antibacterial activity, MIC, multi-drug resistant clinical isolate (Table 3). Conditions: Escherichia coli. Format: cell-based. An outline of the steps: (§4)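 Values derive from a microbroth dilution method, taking as MIC (μg/mL) the lowest tested concentration without macroscopically visible growth.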
The test system of assay [14] is E. coli ELZ4000. The assay is described as above. Format: cell-based. Particulars: Escherichia coli, ELZ4000, read-out: MIC ELZ4000. An outline of the steps: as §4

Values after ≈ are worked out from the molar mass of the structure shown.

Regarding `CCc1c(-c2ccc3c(c2)cc(CNCCF)n3C)[nH]c(=O)c(C(=O)O)c1O` [Cpd 201, 5-ethyl-6-(2-((2-fluoroethylamino)methyl)-1-methyl-1H-indol-5-yl)-4-hydroxy-2-oxo-1,2-dihydropyridine-3-carboxylic acid], the MIC is under 1 µg/mL in assay [1]; 3.5 to 12.5 µg/mL (≈ 9.03 to 32.3 µM) in assay [2]; 3.5 to 12.5 µg/mL (≈ 9.03 to 32.3 µM) in [3]; 12.5 to 150 µg/mL (≈ 32.3 to 387 µM) in assay [4]; 1 to 3.5 µg/mL (≈ 2.58 to 9.03 µM) in assay [5]; under 1 µg/mL in [6]. The MIC is under 1 µg/mL in assay [7]; under 1 µg/mL in assay [8]; 3.5 to 12.5 µg/mL (≈ 9.03 to 32.3 µM) in [9]; under 1 µg/mL in assay [10]; under 1 µg/mL in assay [11]; under 1 µg/mL in [12]. For the same molecule, the MIC in assay [13] and in assay [14] was 3.5 to 12.5 µg/mL (≈ 9.03 to 32.3 µM) each time.
As for `CCc1c(-c2ccc3c(c2)cc(CN(C)C2CCC2)n3C)[nH]c(=O)c(C(=O)O)c1O.Cl` [Cpd 209, 6-(2-((cyclobutyl(methyl)amino)methyl)-1-methyl-1H-indol-5-yl)-5-ethyl-4-hydroxy-2-oxo-1,2-dihydropyridine-3-carboxylic acid hydrochloride], the MIC is under 1 µg/mL in [1]; 3.5 to 12.5 µg/mL in assay [2]; 3.5 to 12.5 µg/mL in assay [3]; 12.5 to 150 µg/mL in assay [4]; 3.5 to 12.5 µg/mL in assay [5]; under 1 µg/mL in assay [6]. In addition, the MIC in assay [7] is under 1 µg/mL; in assay [8], under 1 µg/mL; in assay [9], 12.5 to 150 µg/mL; in assay [10] it was 1 to 3.5 µg/mL; in [11] it was 1 to 3.5 µg/mL; in [12], under 1 µg/mL. The MIC in [13] and in [14] was 12.5 to 150 µg/mL throughout.
`CCc1c(-c2ccc3c(c2)cc(CN(C)CC2CC2)n3C)[nH]c(=O)c(C(=O)O)c1O.Cl` [Cpd 210, 6-(2-(((cyclopropylmethyl)(methyl)amino)methyl)-1-methyl-1H-indol-5-yl)-5-ethyl-4-hydroxy-2-oxo-1,2-dihydropyridine-3-carboxylic acid hydrochloride]: the MIC was under 1 µg/mL in assay [1]; 3.5 to 12.5 µg/mL in assay [2]; 12.5 to 150 µg/mL in [3]; 12.5 to 150 µg/mL in assay [4]; 3.5 to 12.5 µg/mL in assay [5]; under 1 µg/mL in [6]. In addition, the MIC was under 1 µg/mL in assay [7]; 1 to 3.5 µg/mL in [8]; 12.5 to 150 µg/mL in [9]; 1 to 3.5 µg/mL in assay [10]; 3.5 to 12.5 µg/mL in [11]; under 1 µg/mL in assay [12]. Further, the figures for the MIC in assay [13] and in assay [14] were 3.5 to 12.5 µg/mL and 12.5 to 150 µg/mL, respectively.
Take `CCc1c(-c2ccc3c(c2)cc(CNCC2CC2)n3C)[nH]c(=O)c(C(=O)O)c1O.Cl` [Cpd 223, 6-(2-((cyclopropylmethylamino)methyl)-1-methyl-1H-indol-5-yl)-5-ethyl-4-hydroxy-2-oxo-1,2-dihydropyridine-3-carboxylic acid hydrochloride]: the MIC is under 1 µg/mL in assay [1]; 3.5 to 12.5 µg/mL in assay [2]; 1 to 3.5 µg/mL in assay [3]; 12.5 to 150 µg/mL in [4]; 1 to 3.5 µg/mL in [5]; under 1 µg/mL in assay [6]. For the same molecule, the MIC in assay [7] is under 1 µg/mL; in assay [8], under 1 µg/mL; in [9], 3.5 to 12.5 µg/mL; in assay [10], under 1 µg/mL; in assay [11], 3.5 to 12.5 µg/mL; in [12], under 1 µg/mL. Further, the MIC in assay [13] was in the range of 12.5 to 150 µg/mL; in assay [14], 3.5 to 12.5 µg/mL.
As for `CCc1c(-c2ccc3c(c2)cc(CNC2CC2)n3C)[nH]c(=O)c(C(=O)O)c1O.Cl` [Cpd 228, 6-(2-((cyclopropylamino)methyl)-1-methyl-1H-indol-5-yl)-5-ethyl-4-hydroxy-2-oxo-1,2-dihydropyridine-3-carboxylic acid hydrochloride], the MIC in assay [1] was under 1 µg/mL; in assay [2] it was 3.5 to 12.5 µg/mL; in assay [3], 1 to 3.5 µg/mL; in assay [4], 12.5 to 150 µg/mL; in assay [5] it was 1 to 3.5 µg/mL; in assay [6], under 1 µg/mL. The MIC in [7] was under 1 µg/mL; in assay [8], under 1 µg/mL; in assay [9] it was 3.5 to 12.5 µg/mL; in assay [10] it was under 1 µg/mL; in assay [11] it was 1 to 3.5 µg/mL; in assay [12], under 1 µg/mL. The results for the MIC in assay [13] and in assay [14] were 1 to 3.5 µg/mL and 3.5 to 12.5 µg/mL, respectively.
As for `CCc1c(-c2ccc3c(c2)cc(CNC2CCCC2)n3C)[nH]c(=O)c(C(=O)O)c1O.Cl` [Cpd 229, 6-(2-((cyclopentylamino)methyl)-1-methyl-1H-indol-5-yl)-5-ethyl-4-hydroxy-2-oxo-1,2-dihydropyridine-3-carboxylic acid hydrochloride], the MIC was under 1 µg/mL in [1]; 3.5 to 12.5 µg/mL in assay [2]; 1 to 3.5 µg/mL in assay [3]; 12.5 to 150 µg/mL in [4]; 3.5 to 12.5 µg/mL in assay [5]; under 1 µg/mL in assay [6]. Besides, the MIC was under 1 µg/mL in assay [7]; under 1 µg/mL in assay [8]; 3.5 to 12.5 µg/mL in [9]; under 1 µg/mL in [10]; under 1 µg/mL in assay [11]; under 1 µg/mL in assay [12]. Further, the results for the MIC in assay [13] and in [14] were 3.5 to 12.5 µg/mL and 12.5 to 150 µg/mL, respectively.
On to `CCc1c(-c2ccc3c(c2)cc(CNCC2CCCN2CC)n3C)[nH]c(=O)c(C(=O)O)c1O.Cl.Cl` (stereo not drawn) [Cpd 230, 5-ethyl-6-(2-(((1-ethylpyrrolidin-2-yl)methylamino)methyl)-1-methyl-1H-indol-5-yl)-4-hydroxy-2-oxo-1,2-dihydropyridine-3-carboxylic acid dihydrochloride], for which the MIC in assay [1] was under 1 µg/mL; in [2] it was 12.5 to 150 µg/mL; in assay [3], 12.5 to 150 µg/mL; in assay [4] it was 12.5 to 150 µg/mL; in [5], 3.5 to 12.5 µg/mL; in [6], 1 to 3.5 µg/mL. In addition, the MIC in assay [7] fell in the range of 3.5 to 12.5 µg/mL; in assay [8], 3.5 to 12.5 µg/mL; in assay [9] it was 12.5 to 150 µg/mL; in [10], 12.5 to 150 µg/mL; in [11], 1 to 3.5 µg/mL; in [12], 3.5 to 12.5 µg/mL. In addition, the MIC in assay [13] and in [14] was 12.5 to 150 µg/mL throughout.
Turning to `CCc1c(-c2ccc3c(c2)cc(CNCC2CCCN(C)C2)n3C)[nH]c(=O)c(C(=O)O)c1O.Cl.Cl` (stereo not drawn) [Cpd 231, 5-ethyl-4-hydroxy-6-(1-methyl-2-(((1-methylpiperidin-3-yl)methylamino)methyl)-1H-indol-5-yl)-2-oxo-1,2-dihydropyridine-3-carboxylic acid dihydrochloride], the MIC is under 1 µg/mL in [1]; 12.5 to 150 µg/mL in assay [2]; 12.5 to 150 µg/mL in assay [3]; 12.5 to 150 µg/mL in assay [4]; 1 to 3.5 µg/mL in assay [5]; 1 to 3.5 µg/mL in assay [6]. Further, the MIC in assay [7] was 1 to 3.5 µg/mL; in [8], 1 to 3.5 µg/mL; in assay [9] it was 12.5 to 150 µg/mL; in assay [10], 3.5 to 12.5 µg/mL; in assay [11], 1 to 3.5 µg/mL; in assay [12], 3.5 to 12.5 µg/mL. The MIC in assay [13] and in assay [14] was 12.5 to 150 µg/mL in each case.
Turning to `CCc1c(-c2ccc3c(c2)cc(CNC2CCC2)n3C)[nH]c(=O)c(C(=O)O)c1O.Cl` [Cpd 232, 6-(2-((cyclobutylamino)methyl)-1-methyl-1H-indol-5-yl)-5-ethyl-4-hydroxy-2-oxo-1,2-dihydropyridine-3-carboxylic acid hydrochloride], the MIC in [1] was under 1 µg/mL; in assay [2] it was 3.5 to 12.5 µg/mL; in assay [3], 1 to 3.5 µg/mL; in assay [4], 12.5 to 150 µg/mL; in assay [5], 1 to 3.5 µg/mL; in assay [6], under 1 µg/mL. Moreover, the MIC in assay [7] was under 1 µg/mL; in [8] it was under 1 µg/mL; in assay [9] it was 3.5 to 12.5 µg/mL; in assay [10], under 1 µg/mL; in [11], 1 to 3.5 µg/mL; in assay [12], under 1 µg/mL. The MIC in assay [13] and in [14] was 3.5 to 12.5 µg/mL throughout.
